Assay results: the NIST ThermoML archive (doi:10.1021/acs.jced.5b00105)
Numbers after ± are expanded uncertainties.

Test: xn = mol fraction of the nth substance listed
Conditions: for surface tension liquid-gas: Drop volume; for viscosity / mass density: 100 kPa, Liquid; for viscosity: Concentric cylinders viscometry; for mass density: Vibrating tube method

CCCCC1CCCCC1 [butylcyclohexane] + CC(C)CC(C)(C)C
Conditions	mass density [kg/m3]	surface tension liquid-gas [mN/m]	viscosity [mPa·s]
293.15 K, x1 = 0.0999	704.07 ± 0.19	–	0.567 ± 0.091
293.15 K, x1 = 0.1008	–	19.63 ± 0.24	–
293.15 K, x1 = 0.2	–	20.32 ± 0.24	–
293.15 K, x1 = 0.2002	715.88 ± 0.18	–	0.623 ± 0.1
293.15 K, x1 = 0.3001	727.35 ± 0.18	21.02 ± 0.24	0.679 ± 0.11
293.15 K, x1 = 0.3996	738.44 ± 0.17	–	0.744 ± 0.12
293.15 K, x1 = 0.3999	–	21.75 ± 0.24	–
293.15 K, x1 = 0.5004	–	22.42 ± 0.24	–
293.15 K, x1 = 0.5005	749.38 ± 0.17	–	0.816 ± 0.13
293.15 K, x1 = 0.5999	–	23.17 ± 0.24	–
293.15 K, x1 = 0.6003	759.9 ± 0.17	–	0.896 ± 0.14
293.15 K, x1 = 0.6994	770.07 ± 0.16	–	0.981 ± 0.16
293.15 K, x1 = 0.6995	–	23.97 ± 0.24	–
293.15 K, x1 = 0.7998	–	24.87 ± 0.24	–
293.15 K, x1 = 0.8	780.14 ± 0.16	–	1.078 ± 0.17
293.15 K, x1 = 0.9	–	25.85 ± 0.24	–
293.15 K, x1 = 0.9001	789.89 ± 0.15	–	1.184 ± 0.19
293.15 K, x1 = 1	799.37 ± 0.15	26.81 ± 0.25	1.304 ± 0.21
298.15 K, x1 = 0.0999	700.02 ± 0.19	–	0.537 ± 0.086
298.15 K, x1 = 0.1008	–	19 ± 0.24	–
298.15 K, x1 = 0.2	–	19.59 ± 0.24	–
298.15 K, x1 = 0.2002	711.89 ± 0.18	–	0.588 ± 0.094
298.15 K, x1 = 0.3001	723.39 ± 0.18	20.24 ± 0.24	0.64 ± 0.1
298.15 K, x1 = 0.3996	734.52 ± 0.17	–	0.698 ± 0.11
298.15 K, x1 = 0.3999	–	20.9 ± 0.24	–
298.15 K, x1 = 0.5004	–	21.56 ± 0.24	–
298.15 K, x1 = 0.5005	745.49 ± 0.17	–	0.763 ± 0.12
298.15 K, x1 = 0.5999	–	22.29 ± 0.24	–
298.15 K, x1 = 0.6003	756.05 ± 0.17	–	0.835 ± 0.13
298.15 K, x1 = 0.6994	766.27 ± 0.16	–	0.912 ± 0.15
298.15 K, x1 = 0.6995	–	23.1 ± 0.24	–
298.15 K, x1 = 0.7998	–	23.95 ± 0.24	–
298.15 K, x1 = 0.8	776.35 ± 0.16	–	0.998 ± 0.16
298.15 K, x1 = 0.9	–	24.93 ± 0.24	–
298.15 K, x1 = 0.9001	786.12 ± 0.16	–	1.093 ± 0.17
298.15 K, x1 = 1	795.63 ± 0.15	25.87 ± 0.24	1.199 ± 0.19
303.15 K, x1 = 0.0999	695.93 ± 0.19	18.58 ± 0.24	0.51 ± 0.082
303.15 K, x1 = 0.2002	707.85 ± 0.18	19.11 ± 0.24	0.556 ± 0.089
303.15 K, x1 = 0.3001	719.4 ± 0.18	19.81 ± 0.24	0.605 ± 0.097
303.15 K, x1 = 0.3996	730.57 ± 0.18	20.49 ± 0.24	0.657 ± 0.11
303.15 K, x1 = 0.5005	741.58 ± 0.17	21.39 ± 0.24	0.717 ± 0.12
303.15 K, x1 = 0.6003	752.17 ± 0.17	21.79 ± 0.24	0.781 ± 0.12
303.15 K, x1 = 0.6994	762.43 ± 0.16	22.68 ± 0.24	0.851 ± 0.14
303.15 K, x1 = 0.8	772.54 ± 0.16	23.51 ± 0.24	0.929 ± 0.15
303.15 K, x1 = 0.9001	782.34 ± 0.16	24.53 ± 0.24	1.014 ± 0.16
303.15 K, x1 = 1	791.88 ± 0.15	25.49 ± 0.24	1.109 ± 0.18
308.15 K, x1 = 0.0999	–	–	0.486 ± 0.078
308.15 K, x1 = 0.1008	–	18.07 ± 0.24	–
308.15 K, x1 = 0.2	–	18.59 ± 0.24	–
308.15 K, x1 = 0.2002	–	–	0.528 ± 0.085
308.15 K, x1 = 0.3001	–	19.17 ± 0.24	0.573 ± 0.092
308.15 K, x1 = 0.3996	–	–	0.621 ± 0.1
308.15 K, x1 = 0.3999	–	19.76 ± 0.24	–
308.15 K, x1 = 0.5004	–	20.41 ± 0.24	–
308.15 K, x1 = 0.5005	–	–	0.675 ± 0.11
308.15 K, x1 = 0.5999	–	21.12 ± 0.24	–
308.15 K, x1 = 0.6003	–	–	0.734 ± 0.12
308.15 K, x1 = 0.6994	–	–	0.797 ± 0.13
308.15 K, x1 = 0.6995	–	21.94 ± 0.24	–
308.15 K, x1 = 0.7998	–	22.79 ± 0.24	–
308.15 K, x1 = 0.8	–	–	0.868 ± 0.14
308.15 K, x1 = 0.9	–	23.73 ± 0.24	–
308.15 K, x1 = 0.9001	–	–	0.945 ± 0.15
308.15 K, x1 = 1	–	24.73 ± 0.24	1.031 ± 0.17
